Among the data in patent US6051589A, “Diphenyloxazoline derivatives” (Bayer Aktiengesellschaft, priority 1994, dated 2000) are mortality, degree of mortality and logD values, retold here.

One may read the mortality as the share of the test organisms that died.

Series [1] deals with mustard beetle larvae (Phaedon cochleariae). The experiment in a line: Phaedon Larvae Test. Format: in vivo. As to conditions: concentration of active compound 0.1%, cabbage leaves, read-out: degree of mortality. As for the experimental part:
Solvent: 3 parts by weight of dimethylformamide
(§1) Emulsifier: 1 part by weight of alkylaryl polyglycol ether
To produce a suitable preparation of active compound, 1 part by weight of active compound is mixed with the stated amount of solvent and the stated amount of emulsifier, and the concentrate is diluted with water to the desired concentration.
After the desired time, the destruction in % is determined. 100% means that all the beetle larvae have been killed; 0% means that none of the beetle larvae have been killed.

Series [2] deals with red spider mite Tetranychus urticae. The experiment in a line: Tetranychus Test (OP resistant/dipping treatment). To be noted: after 7 days, concentration of active compound 0.01%, all developmental stages, bean plants, OP resistant. The class given is in vivo. Here is the method: Tetranychus Test (OP resistant/dipping treatment)
Solvent: 7 parts by weight of dimethylformamide
as §1
To produce a suitable preparation of active compound, 1 part by weight of active compound is mixed with the stated amount of solvent and the stated amount of emulsifier, and the concentrate is diluted with emulsifier-containing water to the desired concentrations.
Bean plants (Phaseolus vulgaris) which are heavily infested with all developmental stages of the red spider mite Tetranychus urticae are dipped in a preparation of the active compound of the desired concentration.
After the desired time, the action in percent is determined. 100% means that all the spider mites have been killed, 0% means that none of the spider mites have been killed.

Series [3] can be described thus: partition coefficient log p (octanol/water). The class given is physicochemical.

Like-named read-outs stand apart in the source and are kept apart here.

For `CC(C)(C)c1ccc(C2COC(c3c(F)c(F)cc(F)c3F)=N2)cc1` (stereo not shown) [Example 1, 4-(4-tert-butylphenyl)-2-(2,3,5,6-tetrafluorophenyl)-1,3-oxazoline], the mortality at 0.1 % in series [1] came out at 65%. The compound further gave a degree of mortality in series [2] of 98%. The logD in series [3] (pH: 7.4, read-out: partition coefficient log p (octanol/water)) was found to be 4.7.

For the compound `COc1c(F)cc(F)c(F)c1C1=NC(c2ccc(C(C)(C)C)cc2)CO1` (stereo not shown) [Example 2], in series [1], the mortality at 0.1 % stood at 65%. Moreover, the degree of mortality in series [2] was found to be 98%. In addition, in series [3] (pH 7.5, read-out: log p), the logD was found to be 4.59.

For `CC(C)(C)c1ccc(C2COC(c3c(F)c(F)c(F)c(F)c3F)=N2)cc1` (stereo not shown) [Example 3], the logD in series [3] (pH 7.5, read-out: log p) was found to be 5.12.

Regarding `CC(C)(C)c1ccc(C2COC(c3cc(F)c(F)c(F)c3F)=N2)cc1` (stereo not shown) [Example 4], the logD in series [3] (pH 7.5, read-out: log p) turned out to be 4.78.

In series [2], `CC(C)(C)c1ccc(C2COC(c3cc(F)c(F)cc3F)=N2)cc1` (stereo not shown) [Example 5] displayed a degree of mortality of 98%. Moreover, the logD in series [3] (pH 7.5, read-out: log p) amounted to 4.78.

With `CC(C)(C)c1ccc(C2COC(c3cc(F)c(Cl)cc3Cl)=N2)cc1` (stereo not shown) [Example 6], the logD in series [3] (pH 7.5, read-out: log p) came to 5.65.

Consider `CC(C)(C)c1ccc(C2COC(c3c(F)cc(F)cc3F)=N2)cc1` (stereo not shown) [Example 7], for which the logD in series [3] (pH 7.5, read-out: log p) was found to be 4.43.

With `CC(C)(C)c1ccc(C2COC(c3c(F)ccc(F)c3F)=N2)cc1` (stereo not shown) [Example 8], the logD in series [3] (pH 7.5, read-out: log p) is 4.45.

On to `CC(C)(C)c1ccc(C2COC(c3c(F)cc(C(F)(F)F)cc3F)=N2)cc1` (stereo not shown) [Example 9], for which the logD in series [3] (pH 7.5, read-out: log p) was determined as 5.13.

Turning to `CC(C)Cc1ccc(C2COC(c3c(F)c(F)cc(F)c3F)=N2)cc1` (stereo not shown) [Example 12], the logD in series [3] (pH 7.5, read-out: log p) is 5.35.

Regarding `Cc1ccc(C2COC(c3c(F)c(F)cc(F)c3F)=N2)cc1` (stereo not shown) [Example 14], the logD in series [3] (pH 7.5, read-out: log p) turned out to be 3.69.
